Measured values from the supplement of paper PMC10307832.

Tests used:
Experiment in all cases: relative viability (nuclei count vs DMSO), 5 days (fraction); higher = more cells survive
[1] = compound: Cc1ccccc1C(C(=O)NC1CCCCC1)N(C(=O)Cn1ccnc1C)c1cccc(F)c1 [IDH-C35] + CC(C)C[C@H](NC(=O)[C@H](Cc1ccccc1)NC(=O)c1cnccn1)B(O)O [Bortezomib] (partner 0.002 µM)
Procedure, shortened: (§1)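 Five library-drug doses in √10 steps were combined with a fixed anchor-drug dose, or a single drug was given alone, by pin tool to lung cancer cell lines in 1536-well plates the day after seeding. Nuclei were stained and counted after 5 days. Relative viability is the nuclei count in treated wells over that in vehicle wells, taken as the median of duplicate plates.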

[2] = compound: CC1=C(C(=NN1)C)CC2=C(C3=C(S2)N(C(=O)N(C3=O)C)CC(C)C)C(=O)N4C[C@@H](CO4)O + Cc1cc(Nc2cc(N3CCN(C)CC3)nc(Sc3ccc(NC(=O)C4CC4)cc3)n2)n[nH]1 [Tozasertib] (partner 0.1 µM)
Procedure, shortened: as §1

[3] = compound: Cc1ccccc1C(C(=O)NC1CCCCC1)N(C(=O)Cn1ccnc1C)c1cccc(F)c1 [IDH-C35] + CS(=O)(=O)CCNCc1ccc(-c2ccc3ncnc(Nc4ccc(OCc5cccc(F)c5)c(Cl)c4)c3c2)o1 [Lapatinib] (partner 2 µM)
Procedure, shortened: as §1

[4] = compound: CC1=C(C(=NN1)C)CC2=C(C3=C(S2)N(C(=O)N(C3=O)C)CC(C)C)C(=O)N4C[C@@H](CO4)O + N=C(N)NC(=N)NCCc1ccccc1 [Phenformin] (partner 250 µM)
Procedure, shortened: as §1

| Cell Line | relative viability ([1]; first compound 0.08 µM) | relative viability ([1]; first compound 0.253 µM) | relative viability ([1]; first compound 0.8 µM) | relative viability ([1]; first compound 2.53 µM) | relative viability ([1]; first compound 8 µM) | relative viability ([2]; first compound 0.0025 µM) | relative viability ([2]; first compound 0.007906 µM) | relative viability ([2]; first compound 0.025 µM) | relative viability ([2]; first compound 0.07906 µM) | relative viability ([2]; first compound 0.25 µM) | relative viability ([3]; first compound 0.08 µM) | relative viability ([3]; first compound 0.253 µM) | relative viability ([3]; first compound 0.8 µM) | relative viability ([3]; first compound 2.53 µM) | relative viability ([3]; first compound 8 µM) | relative viability ([4]; first compound 0.0025 µM) | relative viability ([4]; first compound 0.007906 µM) | relative viability ([4]; first compound 0.025 µM) | relative viability ([4]; first compound 0.07906 µM) | relative viability ([4]; first compound 0.25 µM) |
| --- | --- | --- | --- | --- | --- | --- | --- | --- | --- | --- | --- | --- | --- | --- | --- | --- | --- | --- | --- | --- |
| HCC-15 | 1.03 | 0.958 | 1.01 | 0.936 | 0.982 | 0.458 | 0.519 | 0.435 | 0.469 | 0.448 | 0.892 | 0.776 | 0.931 | 0.776 | 0.781 | 0.486 | 0.49 | 0.46 | 0.482 | 0.518 |
| HCC-44 | 0.899 | 0.934 | 0.88 | 0.86 | 0.843 | 0.888 | 0.746 | 0.915 | 0.882 | 1.13 | 0.946 | 1.02 | 0.979 | 1.04 | 1.02 | 0.263 | 0.223 | 0.142 | 0.208 | 0.225 |
| HCC-78 | 0.581 | 0.521 | 0.587 | 0.563 | 0.446 | 0.415 | 0.406 | 0.544 | 0.453 | 0.284 | 1.02 | 0.732 | 0.841 | 0.606 | 0.355 | 0.795 | 0.842 | 0.574 | 0.671 | 0.575 |
| HCC-366 | 1.07 | 1.01 | 1.06 | 0.987 | 0.979 | 0.491 | 0.11 | 0.153 | 0.114 | 0.109 | 1.12 | 1.03 | 1.04 | 1.08 | 1.12 | 0.622 | 0.574 | 0.669 | 0.606 | 0.693 |
| HCC-827 | 1.07 | 1.02 | 1.07 | 1.08 | 1.01 | 0.475 | 0.437 | 0.393 | 0.428 | 0.397 | 0.183 | 0.211 | 0.173 | 0.218 | 0.228 | 0.379 | 0.408 | 0.425 | 0.407 | 0.399 |
| HOP-62 | 0.725 | 0.77 | 0.73 | – | 0.798 | 0.312 | 0.376 | 0.344 | 0.393 | 0.407 | 0.945 | 1.06 | 1.01 | – | 0.948 | 0.649 | 0.564 | 0.656 | 0.624 | 0.861 |
| LC-2-ad | 1.01 | 1.03 | 1.01 | 1.04 | 0.935 | 0.53 | 0.462 | 0.494 | 0.44 | 0.426 | 0.998 | 0.978 | 0.924 | 0.904 | 0.973 | 0.604 | 0.59 | 0.528 | 0.573 | 0.648 |
| LCLC-97TM1 | 0.616 | 0.691 | 0.53 | – | 0.511 | 0.207 | 0.277 | 0.219 | 0.209 | 0.285 | 0.672 | 0.825 | 1.1 | – | 0.869 | 0.483 | 0.432 | 0.429 | 0.477 | 0.51 |
| LOU-NH91 | 0.574 | 0.485 | 0.519 | 0.527 | 0.502 | 0.723 | 0.674 | 0.709 | 0.792 | 0.838 | 0.798 | 0.813 | 0.776 | 0.749 | 0.767 | 0.763 | 0.752 | 0.731 | 0.844 | 0.733 |
| LU99A | 1.14 | 1.1 | 1.1 | 1.05 | 1.16 | 0.24 | 0.285 | 0.279 | 0.274 | 0.283 | 1.08 | 0.909 | 0.938 | 0.984 | 1.12 | 0.84 | 1.06 | 0.798 | 0.898 | 0.927 |
| LXF-289 | 0.984 | 1 | 0.941 | 0.999 | 0.955 | 0.205 | 0.213 | 0.18 | 0.186 | 0.22 | 0.9 | 0.893 | 0.91 | 0.965 | 0.877 | 0.525 | 0.52 | 0.532 | 0.537 | 0.556 |
| NCI-H23 | 0.977 | 0.836 | 1.07 | 1.13 | 0.94 | 0.784 | 0.42 | 0.412 | 0.334 | 0.388 | 0.988 | 1.15 | 1.23 | 1.06 | 0.97 | 0.794 | 0.858 | 0.839 | 0.804 | 0.774 |
| NCI-H322M | 1.22 | 1.17 | 1.15 | 1.21 | 1.27 | 0.532 | 0.485 | 0.454 | 0.495 | 0.461 | 0.541 | 0.59 | 0.625 | 0.529 | 0.608 | 0.825 | 0.673 | 0.793 | 0.93 | 0.829 |
| NCI-H460 | 1.2 | 1.18 | 1.08 | 1.11 | 1.12 | 0.493 | 0.337 | 0.494 | 0.479 | 0.54 | 1.19 | 1.11 | 0.978 | 0.888 | 0.963 | 0.526 | 0.586 | 0.491 | 0.553 | 0.515 |
| NCI-H520 | 0.759 | 0.344 | 0.636 | 0.731 | 0.756 | 0.406 | 0.433 | 0.432 | 0.445 | 0.407 | 0.895 | 0.979 | 0.765 | 0.884 | 0.914 | 0.501 | 0.167 | 0.192 | 0.179 | 0.198 |
| NCI-H596 | 1.02 | 0.998 | 1.2 | 1.2 | 0.999 | 0.976 | 1.07 | 1.04 | 0.94 | 0.889 | 1.01 | 1.04 | 1.11 | 1.16 | 1.06 | 0.803 | 0.764 | 0.73 | 0.809 | 1.05 |
